The values below come from US12258345B1, “Pyrrolo[3,2-c]isoquinoline-2,3-dione compounds as CK2 inhibitors” (KING FAISAL UNIVERSITY, priority 2023, dated 2025).

For test [1], the target named is T1, recombinant human CK2 (RRBB-holoenzyme) (Homo sapiens, UniProt P68400).
T1 construct: purchased Millipore
Description: CK2 Kinase Assay (33P-ATP, substrate peptide RRRDDDSDDD). In kind it is biochemical. The conditions noted are these: final ATP concentration 15 μM, 10 min at 30° C.; read-out: protein kinase CK2 activity IC50. How it is done: CK2 Kinase Assay was conducted using the previously described protocol (Pierre F. et al; J. Med. Chem. 2011, 54, 635-654). The tested compounds in aqueous solution were added at a volume of 10 μL to a reaction mixture comprising 10 μL of assay dilution buffer (ADB; 20 mM MOPS, pH 7.2, 25 mM β-glycerol phosphate, 5 mM EGTA, 1 mM sodium orthovanadate, and 1 mM dithiothreitol), 10 μL of substrate peptide (RRRDDDSDDD, dissolved in ADB at a concentration of 1 mM), 10 μL of recombinant human CK2 (RRBB-holoenzyme, 25 ng dissolved in ADB; Millipore). Reactions were initiated by the addition of 10 μL of ATP solution (90% 75 mMMgCl2, 75 μM ATP (final ATP concentration: 15 μM) dissolved in ADB; 10% [γ-33P] ATP (stock 1 mCi/100 μL; 3000 Ci/mmol (Perkin-Elmer) and maintained for 10 min at 30° C. The reactions were quenched with 100 μL of 0.75% phosphoric acid and then transferred to and filtered through a phosphor cellulose filter plate (Millipore). After washing each well five times with 0.75% phosphoric acid, the plate was dried under vacuum for 5 min and, following the addition of 15 μL of scintillation fluid to each well, the residual radioactivity was measured using a Wallac […] counter. The IC50 values were derived from eight concentrations of test inhibitors.

The subject of a further test is MIAPaCa-2 (pancreas). The test can be described thus: MTT in vitro cytotoxic activity assay, MIAPaCa-2. In kind it is cell-based. The settings on record: Homo sapiens, MIA PaCa-2, 96 h incubation, read-out: Cytotoxicity activity, MIAPaCa-2 (pancreas). The protocol:
(§1) Compounds 1-16 were screened for their in vitro cytotoxic behavior using a 3-(4,5-dimethyl-thiazol-2-yl)-2,5-diphenyltetrazolium bromide (MTT) assay against selected cancer human cell lines consisting of PC3 (prostate), HCT116 (colon), A375 (melanoma), H1299 (lung), MIAPaCa-2 (pancreas), HL60 (leukemia), MCF7 (breast), MDA-MB-231 (breast) (T. Mosmann, J. Immunol. Meth., 1983, 65, 55-63). The cells were cultured at 37° C. in RMPI1640 medium supplemented with 10% fetal bovine serum, 50 IU/mL penicillin, and 50 μg/mL streptomycin in a 5% CO2 incubator. All cells were sub-cultured 3 times/week by trypsinisation. Viable cells were seeded and allowed to adhere for 12 h before a test drug was added in 96-well plates at an initial density of 1.0×10^5 cells/mL. Tumor cell lines were separately exposed to various concentrations of the tested compounds followed by incubation at a temperature of 37° C. during 96 h inside a medium of fresh RMPI 1640. Cells were subsequently incubated at 37° C. using MTT at 0.5 mg/mL for 4 hours. After removal of supernatant, formazan crystals were dissolved in isopropanol and the optical density was measured at 570 nm. CX-4945 was used as a positive control.

The next test deals with A375 (melanoma). Description: MTT in vitro cytotoxic activity assay, A375. It counts as cell-based. The conditions noted are these: Homo sapiens, A-375, 96 h incubation, read-out: Cytotoxicity activity, A375 (melanoma). The protocol:
as §1

Another test deals with HCT116 (colon). Description: MTT in vitro cytotoxic activity assay, HCT116. In kind it is cell-based. The settings on record: Homo sapiens, HCT-116, 96 h incubation, read-out: Cytotoxicity activity, HCT116 (colon). How it is done:
as §1

The subject of the next test is HL60 (leukemia). The test can be described thus: MTT in vitro cytotoxic activity assay, HL60. In kind it is cell-based. The conditions noted are these: Homo sapiens, HL-60, 96 h incubation, read-out: Cytotoxicity activity, HL60 (leukemia). The protocol: as §1
The test system of the next test is PC3 (prostate). Description: MTT in vitro cytotoxic activity assay, PC3. It counts as cell-based. The conditions noted are these: Homo sapiens, 96 h incubation, read-out: Cytotoxicity activity, PC3 (prostate). How it is done: as §1
Test [2] has as its system various human cancer cell lines. Description: MTT in vitro cytotoxic activity assay, panel of human cancer cell lines. In kind it is cell-based. The settings on record: MCF7, MDA-MB-231, H1299, PC3, HCT116, A375, MIAPaCa-2, HL60. How it is done: as §1
A further test concerns H1299 (lung). Description: MTT in vitro cytotoxic activity assay, H1299. In kind it is cell-based. The settings on record: Homo sapiens, NCI-H1299, 96 h incubation, read-out: Cytotoxicity activity, H1299 (lung). How it is done: as §1
The test system of a further test is MCF7 (breast). The test can be described thus: MTT in vitro cytotoxic activity assay, MCF7. In kind it is cell-based. The conditions noted are these: Homo sapiens, 96 h incubation, read-out: Cytotoxicity activity, MCF7 (breast). How it is done: as §1
Another test has as its system MDA-MB-231 (breast). Description: MTT in vitro cytotoxic activity assay, MDA-MB-231. The settings on record: Homo sapiens, 96 h incubation, read-out: Cytotoxicity activity, MDA-MB-231 (breast). It counts as cell-based. The protocol: as §1

T1 sequence (P68400 whole entry): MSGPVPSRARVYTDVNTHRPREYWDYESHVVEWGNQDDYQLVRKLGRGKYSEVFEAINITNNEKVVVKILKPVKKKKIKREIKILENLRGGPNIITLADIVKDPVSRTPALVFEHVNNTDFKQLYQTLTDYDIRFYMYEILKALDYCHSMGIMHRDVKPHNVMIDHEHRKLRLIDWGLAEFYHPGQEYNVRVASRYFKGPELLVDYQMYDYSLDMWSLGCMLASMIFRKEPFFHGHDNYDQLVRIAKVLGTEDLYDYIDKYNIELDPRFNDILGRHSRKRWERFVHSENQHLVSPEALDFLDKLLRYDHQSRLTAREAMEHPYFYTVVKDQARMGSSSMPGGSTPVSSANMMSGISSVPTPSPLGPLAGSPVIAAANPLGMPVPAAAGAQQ
T1 sequence (P67870 whole entry partner): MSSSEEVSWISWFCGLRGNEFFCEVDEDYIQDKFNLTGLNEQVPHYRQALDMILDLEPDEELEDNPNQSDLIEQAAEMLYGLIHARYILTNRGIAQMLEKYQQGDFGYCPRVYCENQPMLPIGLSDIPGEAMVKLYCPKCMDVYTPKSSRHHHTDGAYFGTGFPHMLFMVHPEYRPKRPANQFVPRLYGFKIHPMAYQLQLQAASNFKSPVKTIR

Turning to `O=C1Nc2c(nc(Nc3cccc(Cl)c3)c3cc(C(=O)O)ccc23)C1=O` [Compound 1, 5-((3-chlorophenyl)amino)-2,3-dioxo-2,3-dihydro-1H-pyrrolo[3,2-c]isoquinoline-7-carboxylic acid], the IC50 in test [1] turned out to be 38 nM; in the test on MIAPaCa-2 (pancreas), 1100 nM; with A375 (melanoma), 3100 nM; with HCT116 (colon) it was 1500 nM; in the test with HL60 (leukemia), 3900 nM; with PC3 (prostate), 1100 nM. Further, the results for the IC50 in the test on H1299 (lung), in the test on MCF7 (breast) and with MDA-MB-231 (breast) were 1700 nM, 5400 nM and 3800 nM, respectively. In [2], the “in vitro anti-proliferative / anticancer activity against human cancer cell lines (in words)” value was “promising in vitro anti-proliferative activity”.
